Laboratory results published in patent publication US20070129357A1, “Novel crystals of fluorobenzamide derivative” (priority 2003, published 2007).
Entries after “also recorded” stand apart in the source; their conditions may differ.

How the values were obtained:
[1] = test system: If current; conditions: stated as known from WO 00/75133; cited from earlier work
[2] = Hygroscopicity of the crystals (FIG. 5 and FIG. 6); assay type: physicochemical; conditions: crystal forms of compound A compared, FIG. 5 (α-type, Example 3) and FIG. 6 (β-type, Example 2); monophosphate

melting point	SMILES	inhibitory action for If current [1]	hygroscopicity [2]
	COc1cc2c(cc1OC)CN(C(=O)[C@@H]1CCCN(CCNC(=O)c3ccc(F)cc3)C1)CC2.O=P(O)(O)O [compound A, (−)-N-{2-[(R)-3-(6,7-dimethoxy-1,2,3,4-tetrahydroisoquinoline-2-carbonyl)piperidino]ethyl}-4-fluorobenzamide monophosphate]	inhibitory action for If current	
203.8 to 204.7 °C	COc1cc2c(cc1OC)CN(C(=O)[C@@H]1CCCN(CCNC(=O)c3ccc(F)cc3)C1)CC2.O=P(O)(O)O [α-type crystal, (−)-N-{2-[(R)-3-(6,7-dimethoxy-1,2,3,4-tetrahydroisoquinoline-2-carbonyl)piperidino]ethyl}-4-fluorobenzamide monophosphate]		particularly good hygroscopicity; also recorded: superior to the β-type crystal in terms of hygroscopicity
195.5 to 196.3 °C	COc1cc2c(cc1OC)CN(C(=O)[C@@H]1CCCN(CCNC(=O)c3ccc(F)cc3)C1)CC2.O=P(O)(O)O [β-type crystal, (−)-N-{2-[(R)-3-(6,7-dimethoxy-1,2,3,4-tetrahydroisoquinoline-2-carbonyl)piperidino]ethyl}-4-fluorobenzamide monophosphate]		
